According to patent US9351955B2, “Compounds and pharmaceutical compositions thereof for the treatment of cystic fibrosis” (Galapagos NV, priority 2013, dated 2016):

Experiment: Lung distribution study
Type: in vivo, Sprague-Dawley rats
Conditions: male, Sprague-Dawley, rat, plasma, oral, 10 mg/kg, exposure values
Experimental: Sprague-Dawley rats (male, 5-6 weeks old) are obtained from Janvier (France). Rats are acclimatized for at least 5 days before treatment and are kept on a 12 h light/dark cycle. Temperature is maintained at approximately 22° C., and food and water are provided ad libitum. Two days before administration of the test compounds, rats may undergo surgery to place a catheter in the jugular vein under isoflurane anesthesia. After the surgery, rats are housed individually. Rats are deprived of food for at least 16 h before oral dosing and 6 h after. Water is provided ad libitum.
8.7.3. Lung Distribution Studies
Compounds are formulated in 0.5% methylcellulose and EtOH/PEG 200/Methylcellulose 0.5% (10/25/65 v/v/v) by the oral route. Test compounds are orally dosed as a single esophageal gavage at 10 mg/kg under a dosing volume of 5 mL/kg. Each group consists of 12 rats. At each time point, typically 1, 3, 6 and 24 h, animals are euthanized and blood and lung samples are collected. Whole blood samples are centrifuged at 1500 g for 10 min and the resulting plasma samples, along with the lung samples, are stored at −20° C. pending analysis.
8.7.4. Quantification of Compound Levels in Plasma and Lung Samples
Lung samples are milled in the presence of ceramic beads and proteins present in plasma and lung samples are precipitated with an organic solvent. Concentrations of each test compound are determined by an LC-MS/MS method in which the mass spectrometer is operated in positive or negative electrospray mode.
For each animal, the lung-to-plasma ratio is determined as the ratio between compound concentration in lung and in plasma. At each sampling time point, mean, standard error of the mean (sem) and coefficient of variation (CV %) are calculated using data from three animals.

AUC(0-t): 38900 ng·h/mL
Structure (SMILES): CC1(C)Cc2c(sc(NC(=O)C3(CO)CC3)c2C(N)=O)C(C)(C)O1 [Compound 9, 2-(1-(hydroxymethyl)cyclopropanecarboxamido)-5,5,7,7-tetramethyl-5,7-dihydro-4H-thieno[2,3-c]pyran-3-carboxamide]
